The target of one assay is T1, human CRF2a receptor (Homo sapiens, UniProt Q13324).
T1 construct: expressed in transfected cells; host or cells: TeloHEAC cells
T1 sequence (Q13324 1-411): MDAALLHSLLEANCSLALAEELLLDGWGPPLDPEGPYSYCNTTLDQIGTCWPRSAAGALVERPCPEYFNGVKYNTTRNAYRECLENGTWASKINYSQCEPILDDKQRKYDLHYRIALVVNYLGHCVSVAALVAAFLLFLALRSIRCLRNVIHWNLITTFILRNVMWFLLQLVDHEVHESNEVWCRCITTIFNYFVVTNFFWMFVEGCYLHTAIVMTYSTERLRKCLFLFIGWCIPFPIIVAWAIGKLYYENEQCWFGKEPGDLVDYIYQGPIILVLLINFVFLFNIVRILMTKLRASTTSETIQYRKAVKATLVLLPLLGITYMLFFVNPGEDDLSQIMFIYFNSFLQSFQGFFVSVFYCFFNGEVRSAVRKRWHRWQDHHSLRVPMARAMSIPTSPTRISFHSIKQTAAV
Kind of assay: Activity at human CRF2a receptor, cAMP functional assay in TeloHEAC cells. Type of assay: cell-based. Conditions: TeloHEAC cells stably expressing human CRF2a receptor, relative to urocortin 2 (100 nM = 100%). The method in brief:
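TeloHEAC cells stably expressing human CRF2a (10000 cells/well, suspended in HBSS/20 mM HEPES with 2 mM IBMX) were exposed to compounds for 30 min at 37 °C. cAMP was read as the 665/620 nm fluorescence ratio after 1 h at room temperature. EC50 was derived relative to 100 nM urocortin 2, set as 100%.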

The target of the next assay is T2, CFR1R receptor (Homo sapiens, UniProt P34998).
T2 construct: host or cells: CHO-K1 (clone 2)
T2 sequence (P34998 24-415): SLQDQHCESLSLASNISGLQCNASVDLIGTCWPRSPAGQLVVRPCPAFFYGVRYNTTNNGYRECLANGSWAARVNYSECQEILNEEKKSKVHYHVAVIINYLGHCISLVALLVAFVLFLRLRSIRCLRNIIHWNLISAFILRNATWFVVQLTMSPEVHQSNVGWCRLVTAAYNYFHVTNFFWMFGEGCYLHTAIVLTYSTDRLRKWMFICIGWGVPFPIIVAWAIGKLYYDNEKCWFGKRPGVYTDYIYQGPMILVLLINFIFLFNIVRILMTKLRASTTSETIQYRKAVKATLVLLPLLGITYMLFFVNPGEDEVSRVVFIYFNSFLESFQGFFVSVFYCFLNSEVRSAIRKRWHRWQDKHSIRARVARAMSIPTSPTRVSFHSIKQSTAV
As to the kind of experiment: Activity at anti-target CFR1R receptor, cAMP assay in CRF1R-overexpression CHO-K1 cells. Type of assay: cell-based. Conditions: 100% = Sauvagine at 100 nM; for pEC50: cAMP. In a few lines: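 Clone 2; cryopreserved stocks (10% DMSO); 4000 cells/well final; 100% activation = Sauvagine 100 nM; otherwise as TeloHAEC protocol.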
A general note: cAMP levels reflect the balance of adenylyl cyclase and phosphodiesterase activity.

Broadly, the pEC50 is −log10 of the EC50, conventionally taken in molar units.

Molecules are shown by their SMILES. pEC50: −log10 of the molar value. *1 amine or outer side, *2 acyl side, *3 side chain or, on linkers, in order; H or OH if unused. Where a SMILES comes first, the peptide text is derived from it. Side-chain parts run from the residue outwards. [ ]: non-standard residue; d: D form. The star is where a group is joined. C16 diacid = O=C(O)CCCCCCCCCCCCCCC(=O)*; γGlu = O=C(O)[C@H](CCC(=O)[*:2])N[*:1]; NMeI = CC[C@H](C)[C@H](NC)C(=O)O; Api = NC1(C(=O)O)CCNCC1; Pentanoyl = CCCCC(=O)*; Aib = CC(C)(N)C(=O)O Where only a bound is given, the exact number is not on record here.

On human CRF2a receptor, `CCCCC(=O)N[C@H](C(=O)N[C@@H](CC(C)C)C(=O)N[C@@H](CO)C(=O)N[C@@H](CC(C)C)C(=O)N[C@@H](CC(=O)O)C(=O)N[C@@H](C(=O)N1CCC[C@H]1C(=O)N[C@H](C(=O)N[C@@H](CCCCN)C(=O)N[C@@H](CC(C)C)C(=O)N[C@@H](CCCCNC(=O)CC[C@H](NC(=O)CCCCCCCCCCCCCCC(=O)O)C(=O)O)C(=O)N[C@@H](CCCCN)C(=O)N[C@H](C(=O)N[C@@H](CC(C)C)C(=O)N[C@@H](CC(C)C)C(=O)N[C@@H](CCC(=O)O)C(=O)N[C@@H](CCC(N)=O)C(=O)N[C@@H](CCC(=O)O)C(=O)N[C@@H](CCCCN)C(=O)N[C@@H](CCC(N)=O)C(=O)N[C@@H](CCCCN)C(=O)N[C@@H](CCCCN)C(=O)N[C@@H](CCC(N)=O)C(=O)N[C@@H](CCCNC(=N)N)C(=O)N[C@@H](CCC(=O)O)C(=O)N[C@@H](CCC(N)=O)C(=O)N[C@@H](C)C(=O)N[C@@H](CCC(=O)O)C(=O)N[C@H](C(=O)N[C@@H](CC(N)=O)C(=O)N[C@H](C(=O)N[C@@H](CCC(N)=O)C(=O)N[C@H](C(=O)N[C@@H](CC(C)C)C(=O)N[C@@H](C)C(=O)N[C@@H](CCC(N)=O)C(=O)N[C@H](C(N)=O)C(C)C)[C@@H](C)CC)C(C)C)[C@@H](C)O)[C@@H](C)CC)[C@@H](C)CC)C(C)C)C(C)C` [compound 81] (Pentanoyl-VLSLD[dV]PIKLK([γGlu-C16 diacid])KILLEQEKQKKQREQAETNVQILAQV-NH2) showed a pEC50 of 9.10. In addition, at CFR1R receptor, the “Emax (% I)” value is 6 % I and the pEC50 is under 6.60.
On the same counts, the results for `CC[C@H](C)[C@H](NC)C(=O)N[C@H](C(=O)N[C@@H](CC(C)C)C(=O)N[C@@H](CO)C(=O)N[C@@H](CC(C)C)C(=O)N[C@@H](CC(=O)O)C(=O)N[C@@H](C(=O)N1CCC[C@H]1C(=O)N[C@H](C(=O)N[C@@H](CCCCN)C(=O)N[C@@H](CC(C)C)C(=O)N[C@@H](CCCCNC(=O)CC[C@H](NC(=O)CCCCCCCCCCCCCCC(=O)O)C(=O)O)C(=O)N[C@@H](CCCCN)C(=O)N[C@H](C(=O)N[C@@H](CC(C)C)C(=O)N[C@@H](CC(C)C)C(=O)N[C@@H](CCC(=O)O)C(=O)N[C@@H](CCC(N)=O)C(=O)N[C@@H](CCC(=O)O)C(=O)N[C@@H](CCCCN)C(=O)N[C@@H](CCC(N)=O)C(=O)N[C@@H](CCCCN)C(=O)NC(C)(C)C(=O)N[C@@H](CCC(N)=O)C(=O)N[C@@H](CCCNC(=N)N)C(=O)N[C@@H](CCC(=O)O)C(=O)N[C@@H](CCC(N)=O)C(=O)N[C@@H](C)C(=O)N[C@@H](CCC(=O)O)C(=O)N[C@H](C(=O)N[C@@H](CC(N)=O)C(=O)NC1(C(=O)N[C@@H](CCC(N)=O)C(=O)N[C@H](C(=O)N[C@@H](CC(C)C)C(=O)N[C@@H](C)C(=O)N[C@@H](CCC(N)=O)C(=O)N[C@H](C(N)=O)C(C)C)[C@@H](C)CC)CCNCC1)[C@@H](C)O)[C@@H](C)CC)[C@@H](C)CC)C(C)C)C(C)C` [compound 155] (H-[NMeI]VLSLD[dV]PIKLK([γGlu-C16 diacid])KILLEQEKQK[Aib]QREQAETN[Api]QILAQV-NH2) are 9.29, 26 % I and under 6.60.

The values above are taken from patent US20260001928A1 (CORTERIA PHARMACEUTICALS, priority 2022, published 2026).
